Results on one compound are retold here after patent US12616203B2, “Use of 3-isoxazolidinones compounds as selective herbicides” (FMC Corporation, priority 2014, dated 2026).

Structures are written as SMILES.

In assay [1] the test system is barnyardgrass (BG). The assay can be described thus: Ex5 PRE greenhouse, % control. It counts as in vivo, Echinochloa crus-galli. Conditions: 28 DAT, g ai/ha by row: r10-26 2,4-DC 50/100/200 (3 rows each) + mesotrione 25/50/100 (cycling). The method, then:
Test compositions containing 2,4-DC Example 1C and mesotrione (Callisto® Herbicide, 40% active ingredient, Syngenta) and mixtures of 2-(2,4-dichlorophenyl)methyl-4,4-dimethyl-3-isoxazolidinone and mesotrione, were diluted with water to provide the appropriate test rate concentration.
The test weeds were barnyardgrass (BG) (Echinochloa crus-galli), jimsonweed (PA) (Datura stramonium), velvetleaf (VL) (Abutilon theophrasti), common cockelbur (CC) (Xanthium strumarium) and hairy beggarticks (HB) (Bidens pilosa). Crops included in the evaluation were field corn and sorghum.
For pre-emergence testing, four disposable fiber flats (6″ by 10″) for each rate of application of each herbicide solution were filled with top soil, to which seeds of each species were planted in furrows made by a template pressed on the top of the soil. The furrows with seeds were covered with soil and were watered well before application of the test compounds. Flats designated for treatment were placed in a spray chamber having a static platform and a movable sprayer and height of the spray nozzle was 10.5 inches above the soil level. Once the sprayer was calibrated using water for spray volume of 30 gallons per acre, flats were sprayed with sprayer at a speed to receive a coverage equivalent of 30 gallons per acre.
The application rates are those shown in Table 4 below for the individual herbicidal solutions and the herbicide compositions of the present invention. The pre-emergence flats were immediately placed in the greenhouse and watered lightly after treatment. Thereafter they were regularly watered and fertilized for the duration of the test. The control of weeds and injury to crops was evaluated in each experimental test at 28 days after treatment (DAT). […] Percent control was determined by a method similar to the 0 to 100 rating system disclosed in “Research Methods in Weed Science,” 2nd ed., B. Truelove, Ed.; Southern Weed Science Society; Auburn University, Auburn, Ala., 1977.

Assay [2] concerns Pennsylvania smartweed. The assay can be described thus: Ex33 PRE 2,4-DC + fluthiacet-methyl + pyroxasulfone, % control 28 DAT, Colby. It counts as in vivo, Polygonum pensylvanicum. The text has this: ANTHEM® (fluthiacet-methyl, 0.69% plus pyroxasulfone, 22.61%) was included as a standard at labeled rate, Fluthiacet-methyl at 4.9 g ai/ha and pyroxasulfone at 165 g ai/ha. […] The following weeds were screened, Palmer amaranth, Pennsylvania smartweed, velvetleaf, green foxtail, morningglory, Italian ryegrass, prickly sida, and yellow nutsedge. Crops screened were cotton, lentil, mung bean, bush bean, and cowpea. […] Thereafter flats were watered and fertilized routinely.

The subject of assay [3] is weeds. The assay can be described thus: Ex21 PRE greenhouse. To be noted: 28 DAT, weed and rate in the words. The assay is classed as in vivo. The source says: 2,4 DC (36.7% CS) was applied PRE at 0, 125, 170, 210, or 250 g ai/ha alone or as a tank-mix with S-metolachlor (Dual II Magnum®, 82.4%) at 0, 267, 534, 801, or 1070 g ai/ha. Pyroxasulfone plus fluthiacet-methyl (Anthem™, 23.3%) applied at 169.9 g ai/ha, and the tank-mix of mesotrione (Callisto®, 40%) at 123 g plus S-metolachlor (Dual II Magnum®, 82.4%) at 1252 g were included as standards for comparison. […] Thereafter flats were watered and fertilized routinely. Each treatment was replicated three times.

In the case of `CC1(C)CON(Cc2ccc(Cl)cc2Cl)C1=O` [2,4-DC, 2-(2,4-dichlorophenyl)methyl-4,4-dimethyl-3-isoxazolidinone], the “% Control BG” value in assay [1] (r28-30 2,4-DC 50/100/200, r31-33 mesotrione 25/50/100, 50 g ai/ha) turned out to be 97%; in assay [1] (r28-30 2,4-DC 50/100/200, r31-33 mesotrione 25/50/100, 100 g ai/ha), 99%. Besides, the X came to 10% in assay [2] (2,4-DC alone 31 g ai/ha); 23% in assay [2] (2,4-DC alone 63 g ai/ha); 57% in assay [2] (2,4-DC alone 125 g ai/ha); 100% in assay [2] (2,4-DC alone 250 g ai/ha); 99% in assay [2] (2,4-DC alone 375 g ai/ha). In assay [3], the “weed control in words” value was “applied alone controlled (≥85% injury) common chickweed at all rates, bamyardgrass at ≥210 g ai/ha, and green foxtail at 250 g”.
